Assay results from the supplement of paper PMC10307832.

Columns and labels:
Assay in all cases: relative viability (nuclei count vs DMSO), 5 days (fraction); higher = more cells survive
BX 795 + Pictilisib = compound: O=C(NCCCNc1nc(Nc2cccc(NC(=O)N3CCCC3)c2)ncc1I)c1cccs1 [BX 795] + CS(=O)(=O)N1CCN(Cc2cc3nc(-c4cccc5[nH]ncc45)nc(N4CCOCC4)c3s2)CC1 [Pictilisib] (partner 1 µM)
In short: (§1)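 A single step with final 0.05% Triton X-100, 1% formaldehyde and 1 ug/ml Hoechst fixed the cells and stained nuclei 5 days after treatment. Lung cancer cell lines in 1536-well plates had been treated by pin tool the day after seeding with one drug alone or a fixed anchor-drug dose plus five library-drug doses (not always all listed) in √10 steps, and nuclei were counted on 4× images. Relative viability is the ratio of nuclei in treated wells to nuclei in vehicle wells, taken as the median of duplicate plates.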

BX 795 + Crizotinib = compound: O=C(NCCCNc1nc(Nc2cccc(NC(=O)N3CCCC3)c2)ncc1I)c1cccs1 [BX 795] + C[C@@H](Oc1cc(-c2cnn(C3CCNCC3)c2)cnc1N)c1c(Cl)ccc(F)c1Cl [Crizotinib] (partner 1 µM)
In short: as §1

BX 795 + Dasatinib = compound: O=C(NCCCNc1nc(Nc2cccc(NC(=O)N3CCCC3)c2)ncc1I)c1cccs1 [BX 795] + Cc1nc(Nc2ncc(C(=O)Nc3c(C)cccc3Cl)s2)cc(N2CCN(CCO)CC2)n1 [Dasatinib] (partner 0.075 µM)
In short: as §1

BX 795 + Phenformin = compound: O=C(NCCCNc1nc(Nc2cccc(NC(=O)N3CCCC3)c2)ncc1I)c1cccs1 [BX 795] + N=C(N)NC(=N)NCCc1ccccc1 [Phenformin] (partner 250 µM)
In short: as §1

BX 795 + Vorinostat = compound: O=C(NCCCNc1nc(Nc2cccc(NC(=O)N3CCCC3)c2)ncc1I)c1cccs1 [BX 795] + O=C(CCCCCCC(=O)Nc1ccccc1)NO [Vorinostat] (partner 1 µM)
In short: as §1

Cell Line	relative viability (BX 795 + Pictilisib; first compound 0.04 µM)	relative viability (BX 795 + Pictilisib; first compound 0.1265 µM)	relative viability (BX 795 + Pictilisib; first compound 0.4 µM)	relative viability (BX 795 + Pictilisib; first compound 1.265 µM)	relative viability (BX 795 + Crizotinib; first compound 0.04 µM)	relative viability (BX 795 + Crizotinib; first compound 0.1265 µM)	relative viability (BX 795 + Crizotinib; first compound 0.4 µM)	relative viability (BX 795 + Crizotinib; first compound 1.265 µM)	relative viability (BX 795 + Dasatinib; first compound 0.04 µM)	relative viability (BX 795 + Dasatinib; first compound 0.1265 µM)	relative viability (BX 795 + Dasatinib; first compound 0.4 µM)	relative viability (BX 795 + Dasatinib; first compound 1.265 µM)	relative viability (BX 795 + Phenformin; first compound 0.04 µM)	relative viability (BX 795 + Phenformin; first compound 0.1265 µM)	relative viability (BX 795 + Phenformin; first compound 0.4 µM)	relative viability (BX 795 + Phenformin; first compound 1.265 µM)	relative viability (BX 795 + Vorinostat; first compound 0.04 µM)	relative viability (BX 795 + Vorinostat; first compound 0.1265 µM)	relative viability (BX 795 + Vorinostat; first compound 0.4 µM)	relative viability (BX 795 + Vorinostat; first compound 1.265 µM)
EKVX	0.401	0.455	0.421	0.466	1.04	0.867	0.732	0.753	0.637	0.295	0.539	0.508	0.225	0.247	0.21	0.217	0.865	0.696	0.738	0.537
EMC-BAC-2	0.533	0.488	0.479	0.415	0.724	0.733	0.631	0.525	0.296	0.371	0.287	0.265	0.473	0.489	0.469	0.301	0.393	0.261	0.411	0.198
EPLC-272H	0.364	–	0.308	0.304	0.984	–	0.922	0.813	0.436	0.329	0.274	0.267	0.364	0.216	0.284	0.272	0.533	0.472	0.354	0.219
H3255	0.533	0.475	0.498	0.428	0.903	0.831	0.852	0.644	0.361	0.307	0.346	0.386	0.371	0.354	0.406	0.363	0.79	0.797	0.938	0.754
HARA	0.403	0.412	0.496	0.474	1.21	1.06	1	0.601	0.241	0.268	0.26	0.276	0.446	0.424	0.506	0.447	0.523	0.595	0.447	0.482
HCC-15	0.71	0.779	0.968	0.744	0.784	0.883	0.743	0.461	0.54	0.587	0.559	0.463	0.423	0.485	0.482	0.283	0.773	0.865	0.818	0.718
HCC-44	0.55	0.672	0.681	0.594	0.811	0.876	0.973	0.581	–	–	–	–	0.157	0.162	0.222	0.153	1.08	1.12	1.18	1.07
HCC-78	0.236	0.206	0.154	0.218	0.413	0.354	0.355	0.318	0.462	0.379	0.364	0.392	0.853	0.656	0.817	0.708	0.474	0.419	0.399	0.352
